Measurements from patent US7842812B2, “Substituted 5-aminomethy1-1H-pyrrole-2-carboxylic acid amides” (Gruenenthal GmbH, priority 2004, dated 2010).

What follows are compounds tested against T1, human μ opioid receptor (Homo sapiens, UniProt P35372) (assay: Affinity for human μ opioid receptor ([3H]-naloxone displacement, CHO-K1 membrane preparation, SPA)). Conditions: percentage inhibition of specific [3H]-naloxone binding; compound concentration 1 μmol/l; read-out: OR μ1 human naloxone inhibition [%].
T1 construct: purchased NEN, Zaventem, Belgium RB-HOM; host or cells: CHO-K1 cells (membrane preparation)
T1 sequence (P35372 whole entry): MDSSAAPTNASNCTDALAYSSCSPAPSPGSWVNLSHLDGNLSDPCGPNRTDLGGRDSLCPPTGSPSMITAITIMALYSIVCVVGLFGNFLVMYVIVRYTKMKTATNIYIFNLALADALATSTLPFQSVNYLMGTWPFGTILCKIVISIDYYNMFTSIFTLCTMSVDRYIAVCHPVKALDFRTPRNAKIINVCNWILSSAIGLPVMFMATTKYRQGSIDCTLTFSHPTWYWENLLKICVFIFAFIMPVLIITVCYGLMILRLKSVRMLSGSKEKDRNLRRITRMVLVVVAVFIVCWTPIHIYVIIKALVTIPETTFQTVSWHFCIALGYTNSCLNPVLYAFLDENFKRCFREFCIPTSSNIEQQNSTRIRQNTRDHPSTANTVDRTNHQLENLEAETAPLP
Protocol: a) Method for Determining Affinity for Human μ Opioid Receptor
Receptor affinity for the human μ opioid receptor is determined in a homogeneous batch in microtitre plates. […] Once the ninety minute incubation time had elapsed, the microtitre plates were centrifuged off for 20 minutes at 1000 g and the radioactivity measured in a β-Counter (Microbeta-Trilux, from PerkinElmer Wallac, Freiburg, Germany). The percentage displacement of the radioactive ligand from its binding to the human μ opiate receptor is determined at a concentration of the compounds to be tested of 1 μmol/l and stated as percentage inhibition of specific binding. […]
The affinity of the 5-aminomethyl-1H-pyrrole-2-carboxylic acid amides according to the invention for the μ receptor was determined as described above.
Work on `CC1CCCCN1Cc1ccc(C(=O)N2CCCC2)n1C` (stereo not drawn) [Example 3, [1-Methyl-5-(2-methyl-piperidin-1-ylmethyl)-1H-pyrrol-2-yl]-pyrrolidin-1-yl methanone] yielded an inhibition at 1 µM of 83%.
For `CC1CCCCN1Cc1ccc(C(=O)N2CCCCC2)n1C` (stereo not drawn) [Example 10, [1-Methyl-5-(2-methyl-piperidin-1-ylmethyl)-1H-pyrrol-2-yl]-piperidin-1-yl methanone], the inhibition at 1 µM was 86%.

The compounds below were run against T2, 5-HT transporter (Rattus norvegicus, UniProt P31652) (assay: 5-HT uptake inhibition in rat brain synaptosomes (medulla and pons)). Conditions: 10 μM.
T2 construct: from tissue; host or cells: rat brain synaptosomes (P2 fraction) from medulla and pons
T2 sequence (P31652 whole entry): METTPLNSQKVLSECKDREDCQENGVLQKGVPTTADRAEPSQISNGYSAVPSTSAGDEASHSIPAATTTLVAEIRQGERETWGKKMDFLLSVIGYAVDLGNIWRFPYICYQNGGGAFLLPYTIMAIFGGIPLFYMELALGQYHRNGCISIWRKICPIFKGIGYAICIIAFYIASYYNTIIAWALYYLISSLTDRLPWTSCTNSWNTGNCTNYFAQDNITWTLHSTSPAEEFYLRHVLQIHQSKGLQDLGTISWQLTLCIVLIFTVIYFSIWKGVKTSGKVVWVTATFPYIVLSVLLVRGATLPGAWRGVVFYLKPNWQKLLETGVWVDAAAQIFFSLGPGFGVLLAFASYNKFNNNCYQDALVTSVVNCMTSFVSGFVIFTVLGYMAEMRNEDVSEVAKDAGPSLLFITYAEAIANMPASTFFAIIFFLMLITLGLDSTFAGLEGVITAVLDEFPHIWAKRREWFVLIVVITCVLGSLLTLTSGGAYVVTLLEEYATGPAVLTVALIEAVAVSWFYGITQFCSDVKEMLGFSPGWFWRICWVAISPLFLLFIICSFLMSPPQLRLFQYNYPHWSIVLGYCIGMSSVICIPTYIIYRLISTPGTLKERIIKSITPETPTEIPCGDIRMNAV
Format: biochemical
Text: (§1) b) Method for Determining Noradrenalin and 5-HT Uptake Inhibition:
(§2) Synaptosomes from rat brain regions are freshly isolated for in vitro studies, as described in the publication “The isolation of nerve endings from brain” by E. G. Gray and V. P. Whittaker, J. Anatomy 96, pages 79-88, 1962, the disclosure of which is hereby incorporated by reference. The tissue (hypothalamus for the determination of noradrenalin uptake inhibition and medulla and pons for the determination of 5-HT uptake inhibition) is homogenized in ice-cooled 0.32 M sucrose (100 mg of tissue/1 ml) in a glass homogenizer with Teflon pestle using five complete up and down strokes at 840 revolutions/minute. The homogenate is centrifuged at 4° C. for 10 minutes at 1000 g. After subsequent centrifugation at 17000 g for 55 minutes, the synaptosomes (P2 fraction) are obtained, which are resuspended in 0.32 M […] (0.5 ml/100 mg of original weight).
The particular uptake is measured in a 96-well microtitre plate. The volume is 250 μl and the incubation proceeds at room temperature (approx. 20-25° C.) under an O2 atmosphere. The incubation time is 7.5 minutes for [^3H]-NA and 5 minutes for [^3H]-5-HT. The 96 samples are then filtered through a Unifilter GF/B® microtitre plate (Packard) and washed with […] of incubated buffer using a “Brabdel MPXRI-96T Cell-Harvester”. The Unifilter GF/B plate is dried for 1 hour at 55° C. […] After sealing with a Top Seal® (Packard) and establishing an equilibrium (around 5 hours), radioactivity is determined in a “Trilux 1450 Microbeta” (Wallac).
The quantity of protein used in the above determination corresponds to the values known from the literature, as for example described in “Protein measurement with the folin phenol reagent”, Lowry et al., J. Biol. Chem., 193, 265-275, 1951. […]
(§3) The 5-HT reuptake inhibition and noradrenalin reuptake inhibition of the 5-aminomethyl-1H-pyrrole-2-carboxylic acid amides according to the invention were determined as described above.
`CC1CCCCN1Cc1ccc(C(=O)N2CCCC2)n1C` (stereo not drawn) [Example 3, [1-Methyl-5-(2-methyl-piperidin-1-ylmethyl)-1H-pyrrol-2-yl]-pyrrolidin-1-yl methanone] was tested, and the 5HT uptake inhibition was 52 % inhibition.
For `CC1CCN(Cc2ccc(C(=O)N(C)Cc3ccccc3)n2C)CC1` [Example 1, 1-Methyl-5-(4-methyl-piperidin-1-ylmethyl)-1H-pyrrole-2-carboxylic acid benzyl-methyl amide], the 5HT uptake inhibition was 70 % inhibition.
For `Cn1c(CN2CCCCCC2)ccc1C(=O)N1CCCC1` [Example 2, (5-Azepan-1-ylmethyl-1-methyl-1H-pyrrol-2-yl)-pyrrolidin-1-yl methanone], the 5HT uptake inhibition was 60 % inhibition.

The compounds below were run against T3, NA transporter (Rattus norvegicus, UniProt Q63380) (assay: Noradrenalin (NA) uptake inhibition in rat brain synaptosomes (hypothalamus)). Conditions: 10 μM.
T3 construct: from tissue; host or cells: rat brain synaptosomes (P2 fraction) from hypothalamus
T3 sequence (Q63380 1-617): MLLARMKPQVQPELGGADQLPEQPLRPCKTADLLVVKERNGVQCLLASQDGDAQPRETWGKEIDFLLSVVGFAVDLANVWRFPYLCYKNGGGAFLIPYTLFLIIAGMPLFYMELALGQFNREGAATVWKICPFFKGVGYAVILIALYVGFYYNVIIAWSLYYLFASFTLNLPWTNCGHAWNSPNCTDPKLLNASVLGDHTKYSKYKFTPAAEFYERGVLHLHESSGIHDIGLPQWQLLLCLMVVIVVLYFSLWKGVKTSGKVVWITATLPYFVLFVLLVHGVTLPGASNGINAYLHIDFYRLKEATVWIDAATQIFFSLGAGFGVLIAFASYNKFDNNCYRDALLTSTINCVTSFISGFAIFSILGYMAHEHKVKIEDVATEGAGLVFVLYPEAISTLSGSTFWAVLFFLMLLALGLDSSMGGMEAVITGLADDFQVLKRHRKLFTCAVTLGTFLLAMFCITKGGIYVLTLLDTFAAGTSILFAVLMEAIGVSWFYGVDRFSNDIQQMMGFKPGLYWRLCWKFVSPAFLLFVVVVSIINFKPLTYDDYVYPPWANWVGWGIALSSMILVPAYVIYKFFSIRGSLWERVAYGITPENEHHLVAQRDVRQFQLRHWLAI
Format: biochemical
Text: as §1, §2
The particular uptake is measured in a 96-well microtitre plate. The volume is 250 μl and the incubation proceeds at room temperature (approx. 20-25° C.) under an O2 atmosphere. The incubation time is 7.5 minutes for [^3H]-NA and 5 minutes for [^3H]-5-HT. The 96 samples are then filtered through a Unifilter GF/B® microtitre plate (Packard) and washed with […] of incubated buffer using a “Brabdel MPXRI-96T Cell-Harvester”. The Unifilter GF/B plate is dried for 1 hour at 55° C. The plate is then sealed with a Back Seal® (Packard) and 35 μl of scintillation fluid are added per well (Ultima Gold®, Packard). After sealing with a Top Seal® (Packard) and establishing an equilibrium (around 5 hours), radioactivity is determined in a “Trilux 1450 Microbeta” (Wallac).
The quantity of protein used in the above determination corresponds to the values known from the literature, as for example described in “Protein measurement with the folin phenol reagent”, Lowry et al., J. Biol. Chem., 193, 265-275, 1951. A detailed description of the method may additionally be found in the literature, for example in M. Ch. Frink, H.-H. Hennies, W. Engelberger, M. Haurand and B. Wilffert (1996) Arzneim.-Forsch./Drug Res. 46 (III), 11, 1029-1036, the disclosures of which are hereby incorporated by reference.
The following characteristics were determined for the NA or 5-HT transporter: NA uptake: Km=0.32±0.11 μM 5HT uptake: Km=0.084±0.011 μM. c) Investigation of Analgesic Efficacy by the Writhing Test
as §3
With `CN(C(=O)c1ccc(CN2CCC(Cc3ccccc3)CC2)n1C)C1CCCCC1` [Example 7, 5-(4-Benzyl-piperidin-1-ylmethyl)-1-methyl-1H-pyrrole-2-carboxylic acid cyclohexyl-methyl amide] the NA uptake inhibition was 62 % inhibition.
`CCOC(=O)C1CCN(Cc2ccc(C(=O)N(Cc3ccccc3)Cc3ccccc3)n2C)CC1` [Example 6, 1-(5-Dibenzylcarbamoyl-1-methyl-1H-pyrrol-2-ylmethyl)-piperidine-4-carboxylic acid ethyl ester] was tested, and the NA uptake inhibition was 74 % inhibition.
Compound `CC1CCCCN1Cc1ccc(C(=O)N(Cc2ccccc2)C(C)C)n1C` (stereo not drawn) [Example 9, 1-Methyl-5-(2-methyl-piperidin-1-ylmethyl)-1H-pyrrole-2-carboxylic acid benzyl-isopropyl amide] has an NA uptake inhibition of 59 % inhibition.
In the case of `CC1CCCCN1Cc1ccc(C(=O)N(C)Cc2ccccc2)n1C` (stereo not drawn) [Example 5, 1-Methyl-5-(2-methyl-piperidin-1-ylmethyl)-1H-pyrrole-2-carboxylic acid benzyl-methyl amide], the NA uptake inhibition is reported as 81 % inhibition.
With `CC1CCN(Cc2ccc(C(=O)N(C)Cc3ccccc3)n2C)CC1` [Example 1, 1-Methyl-5-(4-methyl-piperidin-1-ylmethyl)-1H-pyrrole-2-carboxylic acid benzyl-methyl amide] the NA uptake inhibition was 81 % inhibition.
Work on `Cn1c(CN2CCC(Cc3ccccc3)CC2)ccc1C(=O)N1CCCCC1` [Example 8, [5-(4-Benzyl-piperidin-1-ylmethyl)-1-methyl-1H-pyrrol-2-yl]-piperidin-1-yl methanone] yielded an NA uptake inhibition of 61 % inhibition.
“1-Methyl-5-pyrrolidin-1-ylmethyl-1H-pyrrole-2-carboxylic acid benzyl amide [Example 4]” was tested, and the NA uptake inhibition was 82 % inhibition.
